Test results: patent US4436751A, “Nitrobenzyl monates antibacterial compounds” (Beecham Group Limited, priority 1980, dated 1984)
Converted amounts (≈) assume the structure as drawn. Where two headings read alike, the source gives them in different places.

Legend:
Format in all cases: cell-based
M. suipneumoniae NB12 = assay: Anti-mycoplasmal MIC in vitro, Friis broth agarose (Table 1); conditions: Mesomycoplasma hyopneumoniae
M. suipneumoniae JF 435 = assay: as above; conditions: Mesomycoplasma hyopneumoniae, JF435, 144 h
M. suipneumoniae HR(2) = assay: as above; conditions: Mesomycoplasma hyopneumoniae, 144 h
M. suipneumoniae Str. 11 = assay: as above; conditions: Mesomycoplasma hyopneumoniae
[1] = test system: M. suipneumoniae J2206/183b; assay: as above; conditions: Mesomycoplasma hyopneumoniae, 144 h
M. suipneumoniae MS 16 = assay: as above; conditions: Mesomycoplasma hyopneumoniae, MS16, 144 h
[2] = test system: M. suipneumoniae PW/C/210; assay: as above; conditions: Mesomycoplasma hyopneumoniae, 144 h
M. suipneumoniae OCD 1 = assay: as above; conditions: Mesomycoplasma hyopneumoniae, OCD1, 144 h
M. suipneumoniae TAM 6N = assay: as above; conditions: Mesomycoplasma hyopneumoniae, TAM6N, 144 h
[3] = test system: M. suipneumoniae ATCC 25095; assay: as above; conditions: Mesomycoplasma hyopneumoniae, ATCC25095, 144 h
[4] = test system: M. suipneumoniae NCTC 10110; assay: as above; conditions: Mesomycoplasma hyopneumoniae, NCTC10110, 144 h
M. hyorhinis ATCC 25021 = assay: as above; conditions: Mesomycoplasma hyorhinis, ATCC25021, 144 h
[5] = test system: M. hyosynoviae ATOC 25591; assay: as above; conditions: 144 h
M. bovis RCTC 10131 = assay: microbe, parasite or virus in culture; conditions: RCTC10131, 144 h
[6] = test system: M. bovigenitalium ATOC 14173; assay: Anti-mycoplasmal MIC in vitro, Friis broth agarose (Table 1); conditions: 144 h
M. dispar RCTC 10125 = assay: as above; conditions: 144 h
[7] = test system: Corynebacterium pyogenes CY1; assay: Veterinary bacteria MIC, Diagnostic Sensitivity Test Agar (Table 2); conditions: Trueperella pyogenes
Description: (§1) The values were determined using a two fold serial dilutions in Diagnostic Sensitivity Test Agar with an inoculum of 10^4 organisms and incubation for 18 hours at 37° C.

[8] = test system: Erysipelothrix rhusiopathiae NCTC 8163; assay: as above; conditions: NCTC8163; Erysipelothrix rhusiopathiae NCTC 8163; DST Agar, 10^4 organisms, 18 hours 37° C.; read-out: MIC
Description: as §1

Past. haemolytica PA5 = assay: as above; conditions: Mannheimia haemolytica; Past. haemolytica PA5; DST Agar, 10^4 organisms, 18 hours 37° C.; read-out: MIC
Description: as §1

Past. multocida PA1 = assay: as above; conditions: Pasteurella multocida; Past. multocida PA1; DST Agar, 10^4 organisms, 18 hours 37° C.; read-out: MIC
Description: as §1

S. typhimurium S18 = assay: as above; conditions: Salmonella enterica
Description: as §1

Staph. aureus 152 = assay: as above; conditions: Staphylococcus aureus; Staph. aureus 152; DST Agar, 10^4 organisms, 18 hours 37° C.; read-out: MIC
Description: as §1

Strep. agalactiae SPA1 = assay: as above; conditions: Streptococcus agalactiae; Strep. agalactiae SPA1; DST Agar, 10^4 organisms, 18 hours 37° C.; read-out: MIC
Description: as §1

E. coli ESS = assay: Human bacteria MIC, nutrient agar with chocolated horse blood (Table 3); conditions: Escherichia coli; E. coli ESS; nutrient agar 5% chocolated horse blood, 18 hours 37° C.; read-out: MIC
Description: (§2) The values were determined by serial dilutions in nutrient agar with 5% chocolated horse blood after incubations for 18 hours at 37° C.

[9] = test system: Neisseria catarrhalis 1502; assay: as above
Description: as §2

Strep. 2733-B = assay: as above
Description: as §2

Strep. 641848-C = assay: as above
Description: as §2

[10] = Neisseria catarrhalis 1502, nutrient agar 5% chocolated horse blood, 18 hours 37° C., read-out: MIC
[11] = 144 h, M. suipneumoniae NB12, in vitro, 6 days 37° C., read-out: MIC
[12] = M. suipneumoniae JF 435, in vitro, 6 days 37° C., read-out: MIC
[13] = M. suipneumoniae HR(2), in vitro, 6 days 37° C., read-out: MIC
[14] = 144 h, M. suipneumoniae Str. 11, in vitro, 6 days 37° C., read-out: MIC
[15] = M. suipneumoniae J2206/183b, in vitro, 6 days 37° C., read-out: MIC
[16] = M. suipneumoniae MS 16, in vitro, 6 days 37° C., read-out: MIC
[17] = M. suipneumoniae PW/C/210, in vitro, 6 days 37° C., read-out: MIC
[18] = M. suipneumoniae OCD 1, in vitro, 6 days 37° C., read-out: MIC
[19] = M. suipneumoniae TAM 6N, in vitro, 6 days 37° C., read-out: MIC
[20] = M. hyorhinis ATCC 25021, in vitro, 6 days 37° C., read-out: MIC
[21] = M. hyosynoviae ATOC 25591, in vitro, 6 days 37° C., read-out: MIC
[22] = Corynebacterium pyogenes CY1, DST Agar, 10^4 organisms, 18 hours 37° C., read-out: MIC
[23] = S. typhimurium S18, DST Agar, 10^4 organisms, 18 hours 37° C., read-out: MIC

SMILES	MIC (M. suipneumoniae NB12; NB12, 144 h) [µg/mL]	MIC (M. suipneumoniae JF 435) [µg/mL]	MIC (M. suipneumoniae HR(2)) [µg/mL]	MIC (M. suipneumoniae Str. 11; STR.11, 144 h) [µg/mL]	MIC ([1]; J2206/183B) [µg/mL]	MIC (M. suipneumoniae MS 16) [µg/mL]	MIC [3] [µg/mL]	MIC [4] [µg/mL]	MIC (M. bovis RCTC 10131) [µg/mL]	MIC [6] [µg/mL]	MIC (M. dispar RCTC 10125) [µg/mL]	MIC [8] [µg/mL]	MIC (Past. haemolytica PA5) [µg/mL]	MIC (Past. multocida PA1) [µg/mL]	MIC (Staph. aureus 152) [µg/mL]	MIC (Strep. agalactiae SPA1) [µg/mL]	MIC (E. coli ESS) [µg/mL]	MIC [9, 10] [µg/mL]	MIC [7, 22] [µg/mL]	MIC (S. typhimurium S18; [23]) [µg/mL]	further results
C/C(=C\C(=O)OCc1ccccc1[N+](=O)[O-])CC1OCC(CC2OC2C(C)C(C)O)C(O)C1O (centres unmarked) [C, O--nitrobenzyl monate A, reference compound]	0.5 (≈ 1.04 µM)	0.5 (≈ 1.04 µM)	0.5 (≈ 1.04 µM)	0.25 (≈ 0.521 µM)	0.5 (≈ 1.04 µM)	0.25 (≈ 0.521 µM)	0.25 (≈ 0.521 µM)	0.5 (≈ 1.04 µM)	≤ 0.01	0.025 (≈ 0.0521 µM)	0.1 (≈ 0.209 µM)	80 (≈ 167 µM)	10 (≈ 20.9 µM)	2.5 (≈ 5.21 µM)	0.625 (≈ 1.3 µM)	2.5 (≈ 5.21 µM)	2.5 (≈ 5.21 µM)	1 (≈ 2.09 µM)	–	–	MIC [2]: 0.25 µg/mL (≈ 0.521 µM); MIC (M. suipneumoniae OCD 1): 0.5 µg/mL (≈ 1.04 µM); MIC (M. suipneumoniae TAM 6N): 0.5 µg/mL (≈ 1.04 µM); MIC (M. hyorhinis ATCC 25021): 0.25 µg/mL (≈ 0.521 µM); MIC [5]: 0.25 µg/mL (≈ 0.521 µM); MIC ([7]; CY1, 18 h): > 80 µg/mL; MIC (S. typhimurium S18; TYPHIMURIUM, 18 h): > 80 µg/mL; MIC (Strep. 2733-B; 18 h): 2.5 µg/mL (≈ 5.21 µM)
C/C(=C\C(=O)OCc1cccc([N+](=O)[O-])c1)CC1OCC(CC2OC2C(C)C(C)O)C(O)C1O (centres unmarked) [Example 2, m-nitrobenzyl monate A]	–	–	–	–	–	–	0.025 (≈ 0.0521 µM)	0.025 (≈ 0.0521 µM)	≤ 0.01	–	–	20 (≈ 41.7 µM)	5 (≈ 10.4 µM)	0.615 (≈ 1.28 µM)	0.625 (≈ 1.3 µM)	0.625 (≈ 1.3 µM)	5 (≈ 10.4 µM)	2.5 (≈ 5.21 µM)	> 80	40 (≈ 83.4 µM)	MIC (M. suipneumoniae NB12; [11]): 0.025 µg/mL (≈ 0.0521 µM); MIC (M. suipneumoniae JF 435; [12]): 0.025 µg/mL (≈ 0.0521 µM); MIC (M. suipneumoniae HR(2); [13]): 0.025 µg/mL (≈ 0.0521 µM); MIC (M. suipneumoniae Str. 11; [14]): 0.025 µg/mL (≈ 0.0521 µM); MIC [1, 15]: 0.025 µg/mL (≈ 0.0521 µM); MIC (M. suipneumoniae MS 16; [16]): ≤ 0.01 µg/mL; MIC [2, 17]: ≤ 0.01 µg/mL; MIC (M. suipneumoniae OCD 1; [18]): 0.025 µg/mL (≈ 0.0521 µM); MIC (M. suipneumoniae TAM 6N; [19]): 0.025 µg/mL (≈ 0.0521 µM); MIC (M. hyorhinis ATCC 25021; [20]): ≤ 0.01 µg/mL; MIC [5, 21]: 0.025 µg/mL (≈ 0.0521 µM); MIC ([6]; M. bovigenitalium ATOC 14173, in vitro, 6 days 37° C., read-out: MIC): ≤ 0.01 µg/mL; MIC (M. dispar RCTC 10125; M. dispar RCTC 10125, in vitro, 6 days 37° C., read-out: MIC): 0.01 µg/mL (≈ 0.0209 µM); MIC (Strep. 2733-B; Strep. 2733-B, nutrient agar 5% chocolated horse blood, 18 hours 37° C., read-out: MIC): 10 µg/mL (≈ 20.9 µM)
C/C(=C\C(=O)OC(C)c1cccc([N+](=O)[O-])c1)CC1OCC(CC2OC2C(C)C(C)O)C(O)C1O (centres unmarked) [Example 3, 1-(m-nitrophenyl)ethyl monate A]	–	–	–	–	–	–	–	–	0.025 (≈ 0.0507 µM)	0.05 (≈ 0.101 µM)	0.05 (≈ 0.101 µM)	80 (≈ 162 µM)	40 (≈ 81 µM)	20 (≈ 40.5 µM)	2.5 (≈ 5.07 µM)	2.5 (≈ 5.07 µM)	10 (≈ 20.3 µM)	–	> 80	> 80	MIC (M. suipneumoniae NB12; [11]): 0.25 µg/mL (≈ 0.507 µM); MIC (M. suipneumoniae JF 435; [12]): 0.25 µg/mL (≈ 0.507 µM); MIC (M. suipneumoniae HR(2); [13]): 0.25 µg/mL (≈ 0.507 µM); MIC (M. suipneumoniae Str. 11; [14]): 0.1 µg/mL (≈ 0.203 µM); MIC [1, 15]: 0.25 µg/mL (≈ 0.507 µM); MIC (M. suipneumoniae MS 16; [16]): 0.1 µg/mL (≈ 0.203 µM); MIC [2, 17]: 0.1 µg/mL (≈ 0.203 µM); MIC (M. suipneumoniae OCD 1; [18]): 0.25 µg/mL (≈ 0.507 µM); MIC (M. suipneumoniae TAM 6N; [19]): 0.25 µg/mL (≈ 0.507 µM); MIC ([3]; M. suipneumoniae ATCC 25095, in vitro, 6 days 37° C., read-out: MIC): 0.1 µg/mL (≈ 0.203 µM); MIC ([4]; M. suipneumoniae NCTC 10110, in vitro, 6 days 37° C., read-out: MIC): 0.25 µg/mL (≈ 0.507 µM); MIC (M. hyorhinis ATCC 25021; [20]): 0.1 µg/mL (≈ 0.203 µM); MIC [5, 21]: 0.25 µg/mL (≈ 0.507 µM); MIC ([9]; Neisseria, 1502, 18 h): 1 µg/mL (≈ 2.03 µM); MIC (Strep. 641848-C; Strep. 641848-C, nutrient agar 5% chocolated horse blood, 18 hours 37° C., read-out: MIC): 2.5 µg/mL (≈ 5.07 µM)
C/C(=C\C(=O)OCc1cccc([N+](=O)[O-])c1)CC1OCC(C/C=C/C(C)C(C)O)C(O)C1O (centres unmarked) [Example 5, m-nitrobenzyl monate C]	0.25 (≈ 0.539 µM)	0.25 (≈ 0.539 µM)	0.25 (≈ 0.539 µM)	0.1 (≈ 0.216 µM)	0.25 (≈ 0.539 µM)	0.1 (≈ 0.216 µM)	0.25 (≈ 0.539 µM)	0.25 (≈ 0.539 µM)	0.1 (≈ 0.216 µM)	0.1 (≈ 0.216 µM)	0.1 (≈ 0.216 µM)	> 80	40 (≈ 86.3 µM)	10 (≈ 21.6 µM)	2.5 (≈ 5.39 µM)	2.5 (≈ 5.39 µM)	10 (≈ 21.6 µM)	1 (≈ 2.16 µM)	> 80	> 80	MIC [2]: 0.1 µg/mL (≈ 0.216 µM); MIC (M. suipneumoniae OCD 1): 0.25 µg/mL (≈ 0.539 µM); MIC (M. suipneumoniae TAM 6N): 0.25 µg/mL (≈ 0.539 µM); MIC (M. hyorhinis ATCC 25021): 0.25 µg/mL (≈ 0.539 µM); MIC [5]: 0.25 µg/mL (≈ 0.539 µM); MIC (Strep. 641848-C; 18 h): 5 µg/mL (≈ 10.8 µM)
